Biological target: Signal transducer and activator of transcription 3 (Homo sapiens, UniProt P40763)
Test: Inhibition of STAT3 (unknown origin) transfected in human HepG2 cells assessed as inhibition of IL-6 induced STAT3 phosphorylation by luciferase reporter gene assay

Sequence of Signal transducer and activator of transcription 3 (P40763 whole entry): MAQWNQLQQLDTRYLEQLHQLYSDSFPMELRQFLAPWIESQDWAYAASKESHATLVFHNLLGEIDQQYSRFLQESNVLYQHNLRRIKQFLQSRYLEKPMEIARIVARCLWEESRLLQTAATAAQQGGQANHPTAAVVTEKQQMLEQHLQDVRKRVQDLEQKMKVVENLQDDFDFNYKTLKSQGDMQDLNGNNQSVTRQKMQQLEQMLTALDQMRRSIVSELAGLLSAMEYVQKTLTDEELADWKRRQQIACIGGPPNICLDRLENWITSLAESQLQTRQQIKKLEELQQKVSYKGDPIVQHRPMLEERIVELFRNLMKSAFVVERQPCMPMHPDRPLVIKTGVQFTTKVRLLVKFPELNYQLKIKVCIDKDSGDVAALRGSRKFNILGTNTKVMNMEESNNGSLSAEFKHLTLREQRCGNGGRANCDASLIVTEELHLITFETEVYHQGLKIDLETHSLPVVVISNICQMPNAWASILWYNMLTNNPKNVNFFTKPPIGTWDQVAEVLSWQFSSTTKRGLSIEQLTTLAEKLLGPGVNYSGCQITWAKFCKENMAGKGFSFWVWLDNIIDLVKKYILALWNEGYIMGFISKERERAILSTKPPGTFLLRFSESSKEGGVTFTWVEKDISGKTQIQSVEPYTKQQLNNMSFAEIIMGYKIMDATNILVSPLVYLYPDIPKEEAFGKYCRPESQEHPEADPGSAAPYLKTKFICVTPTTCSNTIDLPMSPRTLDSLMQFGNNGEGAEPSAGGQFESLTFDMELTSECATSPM

IC50: 5.9 µM
Structure (SMILES): C=C(CCCCC)[C@@H](O)[C@H](C)C(=O)N1C(=O)OC[C@@H]1C(C)C

Reference: BindingDB's records for PubMed 36971365 (Dongguk University, 2023)
